Measured values: patent publication US6552006B2, “Immunomodulatory polynucleotides in treatment of an infection by an intracellular pathogen” (The Regents of the University of California, priority 2000, dated 2003)
Marks after values point to notes of the source that are not given here.

How the values were obtained:
[1] = tested on: M. avium; assay: Attachment and/or invasion of M. avium into mBMDM, CFU immediately after infection; format: cell-based, Mycobacterium avium; conditions: vs cells treated with M-ODN or medium alone
Method: (§1) Alternatively, 5×10^4 mBMDM or hMDM was treated with ISS for 3 days before infection. Macrophages treated with M-ODN or with media alone served as controls. After 3 days, the cells were infected for 2 hrs with M. avium at a macrophage:bacteria ratio of 2:1 for mBMDM or of 1:10 for hMDM, and subsequently cultured in fresh media without antibiotics. To examine attachment and/or invasion of M. avium, the macrophages were lysed immediately after washing, and the number of bacteria were enumerated by the CFU assay. Intracellular growth of M. avium was determined on days 1, 3, and 7 after infection. To account for all the mycobacteria in each group, corresponding lysates were combined and then the number of CFU was determined. To examine the efficacy of anti-mycobacterial treatments, CFU recovered from cells treated with medium alone were considered as 100% growth.
ISS activate macrophages and induce the expression of surface adhesion molecules such as ICAM-1 (Martin-Orozco, et al. (1999) Int. Immun. 11:1111-1118). These molecules may affect the attachment of M. avium or its invasion into mouse bone marrow-derived macrophages (mBMDM). […]

[2] = tested on: spleen and liver of M. avium-infected mice; assay: Histologic examination of spleen and liver of M. avium-infected mice; format: in vivo
Method: Sections of the spleen and liver collected from the experimental and control M. avium-infected mice at 2, 4, and 6 weeks post-infection, were fixed overnight in 10% buffered formalin at room temperature, and embedded in paraffin. The paraffin-embedded tissue was further sectioned (5 μm thickness), stained with hematoxylin-eosin and observed under an Olympus microscope. At least three sections from each organ of each of the experimental and control mice were evaluated and representative fields were viewed at 100×.

[3] = tested on: indoleamine 2,3-dioxygenase (IDO); assay: IDO gene induction in vivo in mice, semi-quantitative RT-PCR; conditions: 50 μg i.v.; after 16 hrs
[4] = tested on: IFN-γ producing CD4+ and CD8+ T cells; assay: Intracellular IFN-γ staining and secreted IFN-γ ELISA of re-stimulated splenocytes from M. avium-infected mice; format: in vivo; conditions: ISS 50 μg/mouse; 10^7 organisms/mouse; three weeks post-infection; anti-CD3/anti-CD28 re-stimulation
Method: Mice were injected intradermally (i.d.) with ISS (50 μg/mouse). The control mice received M-ODN (50 μg/mouse) or PBS (50 μl/mouse). All mice were infected with 1×10^7 M. avium. Three weeks after infection, the mice were sacrificed and splenocytes from mice receiving the same treatment were pooled. Intracellular cytokine staining was performed using the Cytofix/Cytoperm kit (Pharmingen) according to the manufacturer's instructions. Briefly, the splenocytes were stimulated with anti-CD3 and anti-CD28 activating antibodies in the presence of monensin to allow intracellular IFN-γ to accumulate for 6 hrs. Next, surface CD4 and CD8 were stained for, the cells were fixed, and the plasma membranes were permeabilized, allowing for intracellular staining with anti-IFN-γ. The cells were analyzed on a FACSCalibur flow cytometer (Becton Dickenson). To study IFN-γ production, splenocytes were incubated with anti-CD3 and anti-CD28 antibodies in vitro for 24 hrs, and these supernatants were assayed for the presence of IFN-γ by sandwich ELISA (Martin-Orozco, et al. (1999) Int. Immun. 11:1111-1118).

[5] = tested on: IFN-γ; assay: Serum IFN-γ by ELISA in mice; format: in vivo
Method: Serum obtained from M. avium-infected mice that received ISS or PBS was assayed for IFN-γ and IL-12 by ELISA using mouse IFN-γ and IL-12 (p70) ELISA kits (Endogen, Inc. Woburn, […]), respectively, and following the manufacturer's instructions.

[6] = tested on: M. avium; assay: Intracellular growth of M. avium in mouse bone marrow-derived macrophages (mBMDM) in vitro, CFU assay; format: cell-based, Mycobacterium avium; conditions: for % of CFU: 10 μg/ml 72 h prior to infection, medium alone = 100%
Method: A previously studied M. avium strain 13 (Hayashi, et al. (1999) Infect. Immun. 67:3558-3565; Meylan, et al. (1990) Infect. Immun. 58:2564-2568), isolated from an AIDS patient at UCSD, San Diego, Calif., was used in all experiments. The organism was cultured on Middlebrook 7H11 agar (Difco Laboratories, Detroit, Mich.) with OADC enrichment at 37° C. in the presence of 5% CO2 for two weeks. Transparent colonies were selectively picked and further cultured on Middlebrook 7H11 plates for two more weeks. The resulting colonies, which were predominantly transparent (>90%), were then collected and washed two times with phosphate-buffered saline (PBS). The bacteria were finally resuspended in Middlebrook 7H9 broth (Difco Laboratories) and the OD600 of the suspension was adjusted to 0.15-0.2. The suspension was aliquoted and stored at −70° C. until use. The number of organisms/ml of this suspension was determined by the colony forming unit (CFU) assay.
The number of CFU in a given sample was determined by colony counting as described previously (Ogata, et al. (1992) Infect. Immun. 60:4720-4725). Serial 10-fold dilutions of total cell lysates or tissue homogenates were performed in PBS. 10 μl of each dilution were plated on Middlebrook 7H11 plates supplemented with OADC enrichment. The plates were incubated up to 14 days at 37° C. The number of colonies was counted every alternate day from day 10 onwards until no new colonies appeared. This yielded the number of CFU/10 μl. The number of CFU in each well was then calculated.
Preparation of Murine Macrophages. Mouse bone marrow-derived macrophages (mBMDM) were prepared from mouse bone marrow using L-cell conditioned media, as described in Martin-Orozco, et al. (1999) […] 11:1111-1118.
as §1
To determine whether treatment with ISS after infection alters M. avium growth, adherent cells were first infected with M. avium for 2 hrs and then these cells were cultured with fresh media containing ISS. Infected cells treated with M-ODN or medium alone served as controls. At day 7, intracellular growth of M. avium was assessed by CFU assay.

[7] = other experiments, data not shown

5′-TGACTGTGAACGTTCGAGATGA-3′ (SEQ ID NO:1) [ISS]
CFU recovered immediately from cells treated before infection (attachment/invasion) [1]: not significantly different
histopathology of the livers ([2]; vs PBS-treated infected mice): no significant histopathological differences
granulomas in the spleen ([2]; week 4, vs infected mice treated with PBS): notably smaller in size and surrounded by mononuclear cells
granulomas in the spleens ([2]; week 6, vs PBS-treated infected mice): not significantly different
IDO gene induction in vivo in the liver [3]: not in the liver
IDO gene induction in vivo in the lungs and spleen [3]: observed
frequency of infection-specific IFN-γ positive CD4+ or CD8+ T cells [4]: did not further increase
serum IFN-γ levels ([5]; M. avium-infected mice (10^6 organisms/mouse), 2, 4, 6 weeks, ISS-pretreated vs PBS-pretreated): no significant differences
time for serum IFN-γ to attain basal levels post injection [5, 7]: ≤ 3 weeks
time of peak serum level of IFN-γ after administration [5, 7]: 1 days
inhibition of intracellular growth of M. avium in mBMDM from knockout mice ([6]; NADPH oxidase−/−, iNOS−/−, TNF-α−/−, IL-12p40−/−, IFN-α/βR−/−, IFN-γR−/− mBMDM, ISS 3 days before infection): 60-85%
% of CFU ([6]; mBMDM from IFN-αR−/− 129S6/SvEv, day 7): 10.9 ± 01.7^b %
% of CFU ([6]; mBMDM from IFN-γR−/− 129S6/SvEv, day 7): 7.6 ± 01.3^b %
% of CFU ([6]; mBMDM from IL-12 p40−/− C57B1/6, day 7): 26.4 ± 10.1^b %
% of CFU ([6]; mBMDM from INOS−/− C57B1/6, day 7): 37.3 ± 4.6^b %
% of CFU ([6]; mBMDM from NADPH oxidase−/− (gp91 phox−/−) C57B1/6, day 7): 11.4 ± 1.5^b %
% of CFU ([6]; mBMDM from TNF-α−/− C57B1/6, day 7): 24.0 ± 6.0^b %
% of CFU ([6]; mBMDM from Wild type 129S6/SvEV, day 7): 17.0 ± 4.0^b %
% of CFU ([6]; mBMDM from Wild type C57B1/6, day 7): 18.2 ± 7.3^b %
reduction of bacterial growth in mBMDM ([6]; mBMDM infected first, then treated, ISS 10 μg/ml, CLA 0.1 μg/ml, 7 days after infection, compared to medium alone): 68%
inhibition of intracellular growth of M. avium in mBMDM ([6]; treated 72 hrs before infection, day 7): 80%
decrease of intracellular growth of M. avium in mBMDM ([6]; treated for 7 days starting two hours after infection, vs M-ODN or medium alone): 68%
